The values below come from patent US10947263B2, “Cyclic dinucleotides as anticancer agents” (BRISTOL-MYERS SQUIBB COMPANY, priority 2017, dated 2021).

Experiment [1] concerns STING / IRF pathway in THP1-Dual cells. Briefly: STING THP1 Reporter Assay, IRF pathway (secreted Lucia luciferase, QUANTI-Luc). Type of experiment: cell-based. The following applies: 10% human plasma, 100% activation = 100 μM cGAMP, luciferase readout, read-out: THP1 Reporter Assays EC50 IRF3. The source says:
(§1) THP1-Dual™ cells were derived from the human THP-1 monocyte cell line by stable integration of two inducible reporter constructs. To this end, THP1-Dual™ cells allow the simultaneous study of the […], by monitoring the activity of SEAP, and the IRF pathway by assessing the activity of a secreted luciferase (Lucia). Both reporter proteins are readily measurable in the cell culture supernatant when using QUANTI-Blue™, a SEAP detection reagent, and QUANTI-Luc™, a luciferase detection reagent.
(§2) THP1-Dual™ cells induce the activation of NF-κB in response to STING agonists. They also trigger the IRF pathway upon stimulation with STING agonists, such as cGAMP. Here, the THP-1-Dual cells were used to assess STING binders for function on the cellular level.
(§3) Serial dilutions of compounds in DMSO were added to low volume 384 well plates at 100 nl/well using an ECHO acoustic dispenser (Labcyte, model 550) to achieve final starting concentration of 100 μM in cell suspension. THP-1 Dual™ STING reporter cells (Invivogen, Dual cells cat #THPD-nfis) were added to the plates with compounds at 15,000 cells in 10 μL per well in RPMI media (Gibco, cat #11875) containing 10% human plasma in a low volume 384-well black wall clear bottom tissue culture plate (Corning, cat #3542) for SEAP assay and low volume solid white plate (Corning, cat #3826) for luciferase assay. One column of the plate was reserved for treatment with cGAMP at 100 μM for 100% activation calculation and one column for no treatment (DMSO only) for baseline activation. Plates were then incubated in 37 OC incubator at 5% CO2 for 20 hours.
(§4) In the SEAP assay, […] 2× QuantiBlue (Invivogen, cat #Rep-qb2) is added to 384 well black plates seeded with THP1 cells and incubated at 37° C. for 2 hours. Plates were read on the Envision (Perkin Elmer) at 620 nm wavelength (OD620). In the luciferase assay, 5 μl of Quantiluc (Invivogen, Rep-qlc2) is added to white 384 well plates seeded with THP1 cells and read at 5 minutes on the Envision (Perkin Elmer) using a luminescence protocol (RLU). For both cell lines, 100% activation was determined by value (RLU) of THP-1 Dual STING cells stimulated with 100 μM cGAMP (Invivogen, cat #TLRL-NACGA23-5).

For experiment [2], the system named is STING / NF-κB pathway in THP1-Dual cells. Briefly: STING THP1 Reporter Assay, NF-κB pathway (SEAP, QUANTI-Blue). Type of experiment: cell-based. The following applies: 10% human plasma, 100% activation = 100 μM cGAMP, SEAP readout, read-out: THP1 Reporter Assays EC50 NFkB.
Text: as §1, §2, §3, §4

The target in experiment [3] is T1, STING WT (His-TVMV-S-hSTING(155-341)-H232R) (Homo sapiens, UniProt Q86WV6, H232R).
T1 construct: STING WT: His-TVMV-S-hSTING(155-341)-H232R
T1 sequence (Q86WV6 with tags, fused parts or gaps H232R): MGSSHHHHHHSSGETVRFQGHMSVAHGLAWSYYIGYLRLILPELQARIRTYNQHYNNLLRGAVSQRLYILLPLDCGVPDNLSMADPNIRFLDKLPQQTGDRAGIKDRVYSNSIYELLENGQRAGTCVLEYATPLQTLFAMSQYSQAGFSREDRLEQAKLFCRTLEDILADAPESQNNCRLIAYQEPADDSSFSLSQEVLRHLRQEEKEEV
Briefly: STING HTRF binding assay (time resolved FRET competition), STING WT. The following applies: 20 nM His-tagged STING WT cytoplasmic domain, 200 nM fluorescein-labeled cGAMP analog probe, one hour; read-out: HTRF Binding Assays IC50 WT. As for the experimental part: (§5) A time resolved FRET-based competition binding assay was used to assess test article binding to STING WT and STING AQ. His-tagged STING cytoplasmic domain (WT or AQ) at a concentration of 20 nM was incubated with 2.5 nM Tb-labeled anti-His antibody, test compound, and fluorescein-labeled cGAMP analog probe (BioLog cat. no. C195) at a concentration of 200 nM (STING WT) or 40 nM (STING AQ) in PBS containing 0.005% Tween-20 and 0.1% BSA for one hour. Fluorescence at 495 nm and 520 nm was measured using an EnVision microplate reader to quantify FRET between Tb-labeled anti-His antibody and fluorescein-labeled probe. Background was defined as the signal obtained in the absence of STING protein, and background subtracted FRET ratios were normalized to the maximum signal obtained in the absence of test compound. These values were converted to a percent inhibition. Percent inhibition was determined for test compounds at 11 concentrations. The IC50, defined as the concentration of competing test compound needed to reduce specific binding of the probe by 50%, was calculated using the 4 parameter logistic equation to fit the data
STING WT: His-TVMV-S-hSTING(155-341)-H232R • […] […] […] […] LRQEEKEEV (SEQ ID NO:1)

For experiment [4], the target named is T2, STING AQ (His-TVMV-S-hSTING(155-341)-G230A-R293Q) (Homo sapiens, UniProt Q86WV6, G230A/H232R/R293Q).
T2 construct: STING AQ: His-TVMV-S-hSTING(155-341)-G230A-R293Q
T2 sequence (Q86WV6 with tags, fused parts or gaps G230A/H232R/R293Q): as the sequence (Q86WV6 with tags, fused parts or gaps H232R) above, with G99A, R162Q counted along it
As to the kind of experiment: STING HTRF binding assay (time resolved FRET competition), STING AQ. The note with it: 20 nM His-tagged STING AQ cytoplasmic domain, 40 nM fluorescein-labeled cGAMP analog probe, one hour; read-out: HTRF Binding Assays IC50 AQ. As for the experimental part: as §5
STING AQ: His-TVMV-S-hSTING(155-341)-G230A-R293Q • […] […] […] […] LRQEEKEEV (SEQ ID NO:2)

Like-named read-outs stand apart in the source and are kept apart here.

`Nc1ncnc2c1ncn2[C@@H]1O[C@@H]2COP(=O)(S)O[C@@H]3[C@H](F)[C@@H](COP(=O)(S)O[C@H]2[C@H]1F)O[C@H]3n1nnc2c(N)cccc21` (single isomer, unassigned) [Example 13-1]: the EC50 in experiment [1] (20 hours) was found to be 1.2 µM; in experiment [2] (20 hours), 4.9 µM. The IC50 was found to be 0.07 µM in experiment [3] and 0.01 µM in experiment [4].

For the compound `NC(=O)c1cccc2c1nnn2[C@@H]1O[C@@H]2COP(=O)(S)O[C@H]3[C@@H](F)[C@H](n4cnc5c(N)ncnc54)O[C@@H]3COP(=O)(S)O[C@@H]1[C@@H]2O` (single isomer, unassigned) [Example 8-3], the EC50 was 10 µM in experiment [1] (20 hours) and 15.3 µM in experiment [2] (20 hours). Also, the IC50 stood at 0.14 µM in experiment [3] and 0.02 µM in experiment [4].

In the case of `O=[N+]([O-])c1cccc2c1nnn2[C@@H]1O[C@@H]2COP(=O)(S)O[C@H]3[C@@H](F)[C@H](n4cnc5c4ncn4ccnc54)O[C@@H]3COP(=O)(S)O[C@@H]1[C@@H]2O` (single isomer, unassigned) [Example 15-1], the values for the EC50 in experiment [1] (20 hours) and in experiment [2] (20 hours) were 1 µM and 2.1 µM, respectively. In addition, the IC50 in experiment [3] was 0.02 µM; in experiment [4] it was 0.01 µM.

`NC(=O)c1cccc2c1nnn2[C@@H]1O[C@@H]2COP(=O)(S)O[C@H]3[C@@H](F)[C@H](n4cnc5c(N)ncnc54)O[C@@H]3COP(=O)(S)O[C@@H]1[C@@H]2F` (single isomer, unassigned) [Example 10-4]: the EC50 in experiment [1] (20 hours) turned out to be 0.3 µM; in experiment [2] (20 hours) it was 0.9 µM. In addition, the IC50 worked out at 0.01 µM in experiment [3] and 0.002 µM in experiment [4].

For the compound `NC(=O)c1cccc2c1nnn2[C@@H]1O[C@@H]2COP(=O)(O)O[C@H]3[C@@H](F)[C@H](n4cnc5c(N)ncnc54)O[C@@H]3COP(=O)(S)O[C@@H]1[C@@H]2O` (single isomer, unassigned) [Example 4-2], the EC50 in experiment [1] (20 hours) is 0.7 µM; in experiment [2] (20 hours) it was 1.7 µM. In addition, the IC50 in experiment [3] amounted to 0.01 µM; in experiment [4], 0.002 µM.

`Nc1ncnc2c1ncn2[C@@H]1O[C@@H]2COP(=O)(S)O[C@@H]3[C@H](O)[C@@H](COP(=O)(S)O[C@H]2[C@H]1F)O[C@H]3n1nnc2c(C(F)(F)F)cccc21` (single isomer, unassigned) [Example 9-1]: the 50% effective concentration (EC50) in experiment [1] (20 hours) was 0.8 µM; in experiment [2] (20 hours), 2.2 µM. The figures for the IC50 in experiment [3] and in experiment [4] were 0.02 µM and 0.004 µM, respectively.

For the compound `Nc1ncnc2c1ncn2[C@@H]1O[C@@H]2COP(=O)(S)O[C@@H]3[C@H](O)[C@@H](COP(=O)(S)O[C@H]2[C@H]1F)O[C@H]3n1nnc2c(C(F)(F)F)cccc21` (single isomer, unassigned) [Example 9-2], the EC50 in experiment [1] (20 hours) was found to be 7.9 µM; in experiment [2] (20 hours) it was 15.7 µM. In addition, the values for the IC50 in experiment [3] and in experiment [4] were 0.13 µM and 0.01 µM, respectively.

Take `Nc1ncnc2c1ncn2[C@@H]1O[C@@H]2COP(=O)(S)O[C@@H]3[C@H](O)[C@@H](COP(=O)(S)O[C@H]2[C@H]1F)O[C@H]3n1nnc2c(C(F)(F)F)cccc21` (single isomer, unassigned) [Example 9-3]: the EC50 is 69.4 µM in experiment [1] (20 hours) and greater than 100 µM in experiment [2] (20 hours). In addition, the IC50 is 0.9 µM in experiment [3] and 0.04 µM in experiment [4].

In the case of `NC(=O)c1cccc2c1nnn2[C@@H]1O[C@@H]2COP(=O)(O)O[C@H]3[C@@H](F)[C@H](n4cnc5c(N)ncnc54)O[C@@H]3COP(=O)(O)O[C@@H]1[C@@H]2O` [Example 1, 1-[(1R,6R,8R,9R,10R,15R,17R,18R)-8-(6-amino-9H-purin-9-yl)-9-fluoro-3,12,18-trihydroxy-3,12-dioxo-2,4,7,11,13,16-hexaoxa-3λ^5,12λ^5-diphosphatricyclo[13.2.1.0^6,10]octadecan-17-yl]-1H-1,2,3-benzotriazole-4-carboxamide], the EC50 amounted to 1.5 µM in experiment [1] (Homo sapiens, THP1-Dual, 20 h) and 3.2 µM in experiment [2] (Homo sapiens, THP1-Dual, 20 h). In addition, the results for the IC50 in experiment [3] and in experiment [4] were 0.01 µM and 0.003 µM, respectively.

Consider `Nc1ncnc2c1ncn2[C@@H]1O[C@@H]2COP(=O)(S)O[C@@H]3[C@H](F)[C@@H](COP(=O)(S)O[C@H]2[C@H]1F)O[C@H]3n1nnc2c([N+](=O)[O-])cccc21` (single isomer, unassigned) [Example 11-4], for which the EC50 was 21.1 µM in experiment [1] (20 hours) and 34.6 µM in experiment [2] (20 hours). Moreover, the IC50 was determined as 0.15 µM in experiment [3] and 0.02 µM in experiment [4].

Turning to `Nc1ncnc2c1ncn2[C@@H]1O[C@@H]2COP(=O)(S)O[C@@H]3[C@H](F)[C@@H](COP(=O)(S)O[C@H]2[C@H]1F)O[C@H]3n1nnc2c([N+](=O)[O-])cccc21` (single isomer, unassigned) [Example 11-3], the EC50 in experiment [1] (20 hours) was 4 µM; in experiment [2] (20 hours) it was 9.7 µM. Further, the figures for the IC50 in experiment [3] and in experiment [4] were 0.05 µM and 0.01 µM, respectively.

Take `NC(=O)c1cccc2c1nnn2[C@@H]1O[C@@H]2COP(=O)(O)O[C@H]3[C@@H](F)[C@H](n4cnc5c4ncn4ccnc54)O[C@@H]3COP(=O)(S)O[C@@H]1[C@@H]2F` (single isomer, unassigned) [Example 16-2]: the figures for the EC50 in experiment [1] (20 hours) and in experiment [2] (20 hours) were 12.7 µM and 73.9 µM, respectively. The IC50 in experiment [3] was 0.21 µM; in experiment [4] it was 0.01 µM.
